Test results as given in patent US20180066241A1, “PRO-APOPTOTIC SET AND PP2A PEPTIDES” (Universite Pierre Et Marie Curie (Paris 6), priority 2015, published 2018).

Assays:
[1] = target: SET protein (Homo sapiens, UniProt Q01105); assay: Binding assay on cellulose-bound overlapping PP2Ac peptides incubated with SET protein; conditions: four overlapping dodecapeptides, anti-SET antibody, ECL detection
Method: (§1) FIG. 1A and 1B show determination of the binding site of PP2A to SET and vice versa. A) Overlapping dodecapeptides with two amino acid shift covering the whole PP2A protein were bound to a solid support. The membrane was incubated sequentially with SET protein, and anti-SET antibody, followed by a peroxidase-labeled secondary antibody. […] The sequence corresponding to the identified spots is shown. B) Overlapping dodecapeptides with two amino acid shift covering the whole human SET protein were bound to a solid support. The membrane was incubated sequentially with PP2A protein, and anti-PP2A antibody, followed by a peroxidase-labeled secondary antibody. […] The sequence corresponding to the identified spots is shown.
(§2) Overlapping peptides covering the whole human PP2Ac or SET sequence were prepared by automated spot synthesis (Abimed, Langerfeld, Germany) onto an amino-derived cellulose membrane, as described (Frank and Overwin, 1996; Gausepohl et al. 1992). The membranes were blocked, incubated with purified recombinant SET or PP2A protein, after several washing steps, incubated with anti-SET2 (Bethyl Laboratories) or anti-PP2Ac antibody (Santa Cruz), and followed by PO-conjugated secondary antibody. Protein interactions were visualized using ECL system (Pierce). […]

[2] = target: PP2Ac protein (Homo sapiens, UniProt P67775); assay: Binding assay on cellulose-bound overlapping SET peptides incubated with PP2A protein; conditions: six overlapping dodecapeptides, anti-PP2Ac antibody, ECL detection
Sequence of PP2Ac protein (P67775 whole entry): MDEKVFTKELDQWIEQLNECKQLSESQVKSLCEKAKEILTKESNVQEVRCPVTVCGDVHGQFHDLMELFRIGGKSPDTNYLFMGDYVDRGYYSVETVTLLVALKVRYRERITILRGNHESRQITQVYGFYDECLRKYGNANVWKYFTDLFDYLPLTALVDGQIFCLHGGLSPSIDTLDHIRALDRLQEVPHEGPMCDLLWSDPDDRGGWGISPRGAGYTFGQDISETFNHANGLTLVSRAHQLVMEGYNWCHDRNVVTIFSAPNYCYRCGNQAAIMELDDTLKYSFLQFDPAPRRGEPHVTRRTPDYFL
Method: as §1, §2

[3] = tested on: Raji cell line; assay: Detection of apoptosis by Annexin-V-FITC staining, Raji; type: cell-based, Human; conditions: Raji cells, peptide 100 μM for 24 h, compared to control non treated cells
Method: (§3) Daudi, Raji and Jok 1 cell lines were cultured in the presence or in the absence (control) of the Mut3DPT-PP2A peptide at a concentration of 100 μM for 24 h. Apoptosis was detected by Annexin V-FITC staining and analyzed by flow cytometry. Mut3-DPT-PP2A is VKKKKIKAEIKI-ETVTLLVALKVRYRERIT (SEQ ID NO: 32).
(§4) Human B lymphoblast Daudi cell line, human lymphoblast-like Raji cell line and a Hairy cell leukemia-derived cell line Jok1 were cultured in DMEM (Gibco Life technologies) medium supplemented with 10% FCS.
(§5) Apopotic cells were detected using Annexin-V (-FITC from BD biosciences) as described above.
(§6) The effect of Mut3DPT-PP2Ac peptide treatment was compared to untreated cells. The peptides were used at 100 μM for 24 h.

[4] = tested on: H1299 cell line; assay: Detection of apoptosis by Annexin-V-FITC staining, H1299; type: cell-based, Human; conditions: H1299 cells, peptide 100 μM for 24 h, compared to control non treated cells
Method: (§7) H1975 and H1299 cell lines were cultured in the presence or in the absence (control) of the Mut3DPT-PP2Ac peptide at a concentration of 100 μM for 24 h. Apoptosis was detected by Annexin V-FITC staining and analyzed by flow cytometry. Mut3-DPT-PP2A is VKKKKIKAEIKI-ETVTLLVALKVRYRERIT (SEQ ID NO: 32).
(§8) Human non small cell lung carcinoma cell lines H1975 and H1299, as well as breast cancer cell line MDA-MB231 were cultured in DMEM (Gibco Life technologies) medium supplemented with 10% FCS.
(§9) Apopotic cells were detected using Annexin-V (-FITC from BD biosciences) as described by the manufacturer. Briefly, the cells were washed in lx binding buffer, centrifugated and then resuspended in 200 μL of 1× binding buffer containing Annexin V-FITC and propidium iodide (PI). After incubation at room temperature in the dark for 10 min, cells were analyzed with FACS Calibur cytofluometer (BD Biosciences).
(§10) The effect of peptides treatment was compared to untreated cells. The peptides were used at 100 μM for 24 h.

[5] = tested on: Daudi cell line; assay: Detection of apoptosis by Annexin-V-FITC staining, Daudi; type: cell-based, Human; conditions: Daudi cells, peptide 100 μM for 24 h, compared to control non treated cells
Method: as §3, §4, §5, §6

[6] = tested on: H1975 cell line; assay: Detection of apoptosis by Annexin-V-FITC staining, H1975; type: cell-based, Human; conditions: H1975 cells, peptide 100 μM for 24 h, compared to control non treated cells
Method: as §7, §8, §9, §10

[7] = tested on: Jok1 cell line; assay: Detection of apoptosis by Annexin-V-FITC staining, Jok1; type: cell-based, Human; conditions: Jok1 cells, peptide 100 μM for 24 h, compared to control non treated cells
Method: as §3, §4, §5, §6

[8] = tested on: MDA-MB231 cell line; assay: Detection of apoptosis by Annexin-V-FITC staining, MDA-MB231; type: cell-based, Human; conditions: MDA-MB231 cells, peptide 100 μM for 24 h, compared to control non treated cells
Method: MDA-MB231 cell line was cultured in the presence or in the absence (control) of the Mut3DPT-SET peptide at a concentration of 100 μM for 24 h. Apoptosis was detected by Annexin V-FITC staining and analyzed by flow cytometry. Mut3-DPT-SET is VKKKKIKAEIKI-[…] (SEQ ID NO: 33).
as §8, §9, §10

Sequence of SET protein (Q01105 1-277 isoform Q01105-2): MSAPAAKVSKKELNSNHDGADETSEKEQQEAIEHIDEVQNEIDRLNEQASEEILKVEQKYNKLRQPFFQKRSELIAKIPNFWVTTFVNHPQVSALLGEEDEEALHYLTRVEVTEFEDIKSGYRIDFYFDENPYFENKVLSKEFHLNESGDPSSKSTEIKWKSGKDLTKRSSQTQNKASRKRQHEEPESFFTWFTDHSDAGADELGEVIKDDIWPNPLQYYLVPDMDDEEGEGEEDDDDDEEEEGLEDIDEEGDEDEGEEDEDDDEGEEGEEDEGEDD

Substance: ETVTLLVALKVRYRERIT (Synthetic peptide PP2Ac) [SEQ ID NO: 1]
- binding of SET protein to cellulose-bound PP2Ac sequence [1]: bound by SET protein

Substance: PSSKSTEIKWKSGKDLTKRSSQ (Synthetic peptide SET) [SEQ ID NO: 2]
- binding of PP2Ac protein to cellulose-bound SET sequence [2]: bound by PP2Ac protein

Substance: VKKKKIKAEIKI-ETVTLLVALKVRYRERIT (VKKKKIKAEIKIETVTLLVALKVRYRERIT) [Mut3DPT-PP2Ac]
- apoptosis (Annexin V-FITC staining, flow cytometry) [3]: has an apoptotic effect
- apoptosis (Annexin V-FITC staining, flow cytometry) [4]: has apoptotic effect
- apoptosis (Annexin V-FITC staining, flow cytometry) [5]: has an apoptotic effect
- apoptosis (Annexin V-FITC staining, flow cytometry) [6]: has apoptotic effect
- apoptosis (Annexin V-FITC staining, flow cytometry) [7]: has an apoptotic effect

Substance: VKKKKIKAEIKI-PSSKSTEIKWKSGKDLTKRSSQ (VKKKKIKAEIKIPSSKSTEIKWKSGKDLTKRSSQ) [Mut3DPT-SET]
- apoptosis (Annexin V-FITC staining, flow cytometry) [8]: slight apoptosis increase
